Measurements taken from patent publication US20220274980A1, “PHARMACOLOGICAL INHIBITORS OF THE ENL YEATS DOMAIN” (priority 2019, published 2022).
Read-outs that look alike come from different tables or passages of the source.

Experiments:
[1] = biological target: T1, ENL YEATS domain (association with H3K27cr) (Homo sapiens, UniProt Q03111); assay: biochemical; details: ENL (YEATS)-H3K27cr HTRF (IC50, μM)
T1 sequence (Q03111 1-148): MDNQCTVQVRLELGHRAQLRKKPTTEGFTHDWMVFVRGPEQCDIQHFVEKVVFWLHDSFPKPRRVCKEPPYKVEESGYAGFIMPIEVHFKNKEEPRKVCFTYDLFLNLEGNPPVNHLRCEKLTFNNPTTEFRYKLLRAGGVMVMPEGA

[2] = biological target: T2, ENL(YEATS)-HiBiT (Homo sapiens, UniProt Q03111); details: read-out: ENL YEATS CETSA (IC50); Table 2; OCI/AML-2 cells expressing ENL(YEATS)-HiBiT
T2 sequence (Q03111 1-138 limits assumed): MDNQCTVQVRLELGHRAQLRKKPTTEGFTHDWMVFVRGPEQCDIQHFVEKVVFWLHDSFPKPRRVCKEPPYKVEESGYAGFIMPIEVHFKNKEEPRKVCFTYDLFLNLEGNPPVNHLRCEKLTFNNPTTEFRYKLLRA

[3] = biological target: T3, BRD4 bromodomain 1 (BD1) (Homo sapiens, UniProt O60885); assay: BRD4 (BD1)-H4 tetra-acetylated HTRF histone-binding assay
T3 construct: Selectivity against BRD4 bromodomain 1 (BD1), measured by HTRF; His; purchased Cayman 11720
Procedure, shortened: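 Recombinant BRD4 BD1 (10 nM) was combined with 13.3 nM biotinylated tetra-acetylated H4 peptide, Eu-anti-His antibody and APC-streptavidin in HEPES buffer, pH 7. Compound was pin-transferred and plates incubated ≥2 h before HTRF reading (665/620 nm ratio). Percent inhibition was normalised to vehicle (maximum) and no-peptide (minimum) wells.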

[4] = biological target: T2, ENL(YEATS)-HiBiT; assay: cell-based
[5] = Half-life in mouse liver microsomes; format: in vitro ADME
[6] = Half-life in human liver microsomes; format: in vitro ADME
[7] = biological target: T4, ENL protein (Homo sapiens, UniProt Q03111); assay: ENL immunoblot CETSA on endogenous ENL in OCI/AML-2 cells; format: cell-based; details: 10 μM
T4 construct: performed on endogenous ENL protein by treating wild-type OCI-AML-2 cells with drug; endogenous in cells; host or cells: OCI/AML-2
T4 sequence (Q03111 1-559): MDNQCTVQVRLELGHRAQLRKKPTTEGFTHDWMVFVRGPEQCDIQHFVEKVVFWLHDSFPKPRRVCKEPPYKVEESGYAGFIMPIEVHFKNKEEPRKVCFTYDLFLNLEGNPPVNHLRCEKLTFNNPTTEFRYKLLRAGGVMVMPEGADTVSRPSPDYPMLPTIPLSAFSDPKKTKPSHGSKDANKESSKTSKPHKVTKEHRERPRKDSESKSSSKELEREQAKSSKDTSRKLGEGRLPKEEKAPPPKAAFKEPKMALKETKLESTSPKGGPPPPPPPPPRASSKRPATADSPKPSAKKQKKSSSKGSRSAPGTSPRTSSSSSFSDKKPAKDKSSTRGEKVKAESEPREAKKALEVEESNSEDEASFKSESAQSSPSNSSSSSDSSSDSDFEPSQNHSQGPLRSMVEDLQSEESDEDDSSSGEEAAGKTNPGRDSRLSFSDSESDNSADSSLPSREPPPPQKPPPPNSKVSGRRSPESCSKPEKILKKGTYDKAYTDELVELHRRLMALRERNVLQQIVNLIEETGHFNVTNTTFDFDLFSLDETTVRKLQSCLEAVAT
Protocol: Cellular thermal shift assay (CETSA). […] Briefly, cells were treated with drug, washed with PBS, heated to various temperatures in a thermocycler, cooled to room temperature, lysed by three rounds of freeze-thaw, and then clarified lystaes were subjected to immunoblot analysis.

[8] = test system: MV4; 11 cells; assay: MV4;11 proliferation assay (total viable cell count); format: cell-based; details: listed as Compound of Formula 69
Protocol: Proliferation assay. MV4; 11 cells were seeded at 20,000 cells/well in 96-well plates and treated with vehicle or drug, counted and reseeded at 20,000 cells/well every 3-4 days with freshly added vehicle or drug.

[9] = read-out: t1/2 (min) mouse liver microsomes
[10] = read-out: t1/2 (min) human liver microsomes

Row | Compound | IC50 ([1]; Table 1) | IC50 ([1]; Table 2) | IC50 [2] | IC50 ([3]; Table 1) | IC50 ([3]; Table 2) | IC50 [4] | half-life [5, 9] | half-life ([5]; without NADPH, read-out: t1/2 mouse (min liver microsomes (without NADPH))) | half-life [6, 10] | half-life ([6]; without NADPH, read-out: t1/2 (min) human liver microsomes (without NADPH)) | stabilization of ENL protein, immunoblot analysis of CETSA [7] | inhibition of MV4:11 proliferation, total viable cell count [8]
1 | CCC(CC)NC(=O)c1ccc2nc(-c3ccccc3)cn2c1 [Compound 13] | > 50 µM | > 50 µM | > 100 µM | > 50 µM | > 50 µM | > 100 µM |  |  |  |  |  | 
2 | O=C(CCCCN1CCCCC1)Nc1cccc(-c2cn3cc(C(=O)NC4CCC4)ccc3n2)c1 [Compound 103] | 0.696 µM | 0.696 µM |  |  |  | 2.2 µM | 13.1 min | 16.1 min |  |  |  | 
3 | CC(C)NC(=O)c1ccc2nc(-c3ccc(C(F)(F)F)cc3)cn2c1 [Compound 7] | > 50 µM | > 50 µM | > 100 µM | > 50 µM | > 50 µM | > 100 µM |  |  |  |  |  | 
4 | CC(C)NC(=O)c1ccc2nc(-c3cccc(OC(F)(F)F)c3)cn2c1 [Compound 3] | 3.5 µM | 3.5 µM | > 100 µM | > 50 µM | > 50 µM | > 100 µM |  |  |  |  |  | 
5 | O=C(CCN1CCOCC1)Nc1cccc(-c2cn3cc(C(=O)NC4CCC4)ccc3n2)c1 [Compound 110] | 0.306 µM | 0.306 µM |  |  |  | 5.01 µM | 19.9 min |  |  |  |  | 
6 | O=C(NC1CCC1)c1ccc2nc(-c3cccc(S(=O)(=O)NCCN4CCCCC4)c3)cn2c1 [Compound 107] | 0.635 µM | 0.635 µM |  |  |  | 2.02 µM | 6.15 min |  |  |  |  | 
7 | CC(C)NC(=O)c1ccc2nc(-c3ccccc3OC(F)(F)F)cn2c1 [Compound 12] | > 50 µM | > 50 µM | > 100 µM | > 50 µM | > 50 µM | > 100 µM |  |  |  |  |  | 
8 | O=C(NC1CCC1)c1ccc2nc(-c3cccc(NS(=O)(=O)NCCc4c[nH]cn4)c3)cn2c1 [Compound 69, 2-(3-((N-(2-(1H-imidazol-4-yl)ethyl)sulfamoyl)amino)phenyl)-N-cyclobutylimidazo[1,2-a]pyridine-6-carboxamide] | 0.1 µM | 0.1 µM |  |  |  | 8.4 µM |  |  |  |  | stabilization of ENL protein | Inhibition of MV4:11 proliferations
9 | O=C(NC1CCCCC1O)c1ccc2nc(-c3ccccc3)cn2c1 (stereo not shown) [Compound 11] | > 50 µM | > 50 µM | > 100 µM | > 50 µM | > 50 µM | > 100 µM |  |  |  |  |  | 

The remaining compounds from weak to strong by IC50 ([1]; Table 1), led by results:

Row | IC50 ([1]; Table 1) | IC50 ([1]; Table 2) | IC50 [2] | IC50 ([3]; Table 1) | IC50 ([3]; Table 2) | IC50 [4] | half-life [5, 9] | half-life ([5]; without NADPH, read-out: t1/2 mouse (min liver microsomes (without NADPH))) | half-life [6, 10] | half-life ([6]; without NADPH, read-out: t1/2 (min) human liver microsomes (without NADPH)) | Compound | stabilization of ENL protein, immunoblot analysis of CETSA [7] | inhibition of MV4:11 proliferation, total viable cell count [8]
10 | 0.265 µM | 0.265 µM |  |  |  | 8.13 µM | 3.46 min |  |  |  | O=C(CCN1CCCCC1=O)Nc1cccc(-c2cn3cc(C(=O)NC4CCC4)ccc3n2)c1 [Compound 109] |  | 
11 | 0.153 µM | 0.153 µM |  |  |  | 2.63 µM | 85.9 min |  | 104 min |  | O=C(NCCN1CCCCC1)Nc1cccc(-c2cn3cc(C(=O)NC4CCC4)ccc3n2)c1 [Compound 113] |  | 
12 | 0.124 µM | 0.124 µM |  |  |  | 0.63 µM | 28 min |  | 23.8 min | 537 min | O=C(NCCN1CCCCC1)c1cccc(-c2cn3cc(C(=O)NC4CCC4)ccc3n2)c1 [Compound 108] |  | 
13 | 0.027 µM | 0.027 µM |  |  |  | 1.24 µM | 7.83 min |  |  |  | O=C(NC1CCC1)c1ccc2nc(-c3cccc(NS(=O)(=O)CCN4CCCCC4)c3)cn2c1 [Compound 106] |  | 
